According to PubChem BioAssay AID330 (DTP/NCI, 2004):
Several values for one entry are separate records, joined by “and”; a condition that tells them apart may be missing. Identical values can stand only once. Toxic doses and inconclusive results are not listed. How the source made its calls: active means survival T/C of 150% or more; inactive means T/C below 125% in these data.

System: P388 leukemia ip, CD2F1 mice, survival T/C
Test: NCI In Vivo Anticancer Drug Screen. Data for tumor model P388 Leukemia (intraperitoneal) in CD2F1 (CDF1) mice
Details: endpoint: median survival time, higher = longer survival
In short: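 Mice carrying the transplanted tumor received test compound or vehicle. Survival was recorded in each group, and the value is the treated-group measurement divided by that of the vehicle-treated control group.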

[1] = dose: 50.0 mg/kg/injection, schedule: Q01DX005 (ip), vehicle: Klucel (hydroxypropylcellulose) (HPC)
[2] = dose: 100.0 mg/kg/injection, schedule: Q01DX005 (ip), vehicle: Klucel (hydroxypropylcellulose) (HPC)
[3] = dose: 200.0 mg/kg/injection, schedule: Q01DX005 (ip), vehicle: Klucel (hydroxypropylcellulose) (HPC)
[4] = dose: 50.0 mg/kg/injection, schedule: Q01DX009 (ip), vehicle: Klucel (hydroxypropylcellulose) (HPC)
[5] = dose: 100.0 mg/kg/injection, schedule: Q01DX009 (ip), vehicle: Klucel (hydroxypropylcellulose) (HPC)
[6] = dose: 200.0 mg/kg/injection, schedule: Q01DX009 (ip), vehicle: Klucel (hydroxypropylcellulose) (HPC)
[7] = dose: 60.0 mg/kg/injection, schedule: Q01DX005 (ip), vehicle: saline with Tween-80
[8] = dose: 120.0 mg/kg/injection, schedule: Q01DX005 (ip), vehicle: saline with Tween-80
[9] = dose: 240.0 mg/kg/injection, schedule: Q01DX005 (ip), vehicle: saline with Tween-80
[10] = dose: 100.0 mg/kg/injection, schedule: Q04DX002 (ip), vehicle: Klucel (hydroxypropylcellulose) (HPC)
[11] = dose: 200.0 mg/kg/injection, schedule: Q04DX002 (ip), vehicle: Klucel (hydroxypropylcellulose) (HPC)
[12] = dose: 12.5 mg/kg/injection, schedule: Q01DX005 (ip), vehicle: saline with Tween-80
[13] = dose: 25.0 mg/kg/injection, schedule: Q01DX005 (ip), vehicle: saline with Tween-80
[14] = dose: 50.0 mg/kg/injection, schedule: Q01DX005 (ip), vehicle: saline with Tween-80
[15] = dose: 100.0 mg/kg/injection, schedule: Q01DX005 (ip), vehicle: saline with Tween-80
[16] = dose: 100.0 mg/kg/injection, schedule: Q04DX003 (ip), vehicle: Klucel (hydroxypropylcellulose) (HPC)
[17] = dose: 200.0 mg/kg/injection, schedule: Q04DX003 (ip), vehicle: Klucel (hydroxypropylcellulose) (HPC)
[18] = dose: 400.0 mg/kg/injection, schedule: Q04DX003 (ip), vehicle: Klucel (hydroxypropylcellulose) (HPC)
[19] = dose: 60.0 mg/kg/injection, schedule: Q01DX005 (ip), vehicle: saline
[20] = dose: 120.0 mg/kg/injection, schedule: Q01DX005 (ip), vehicle: saline

Measured: T/C

O=C(O)C1Cc2c([nH]c3ccccc23)C(C(=O)O)N1 (stereo not given)
inactive: dose: 50.0 mg/kg/injection, schedule: Q04DX003 (ip), vehicle: saline 95 % of control | dose: 100.0 mg/kg/injection, schedule: Q04DX003 (ip), vehicle: saline 95 % of control | dose: 200.0 mg/kg/injection, schedule: Q04DX003 (ip), vehicle: saline 93 % of control

COCCOC1=C(N2CC2)C(=O)C(OCCOC)=C(N2CC2)C1=O
inactive: dose: 2.2 mg/kg/injection, schedule: Q04DX003 (ip), vehicle: saline 113 % of control | dose: 3.3 mg/kg/injection, schedule: Q04DX003 (ip), vehicle: saline 122 % of control | dose: 3.75 mg/kg/injection, schedule: Q01DX009 (ip), vehicle: saline 118 % of control
active: dose: 1.87 mg/kg/injection, schedule: Q01DX009 (ip), vehicle: saline 204 % of control

COc1ccc(CSCC(NC(=O)OC(C)(C)C)C(=O)O)cc1 (stereo not given)
inactive: [1] 105 % of control | [2] 97 % of control | [3] 100 % of control

Cc1ccc(Cl)cc1N=Cc1cccs1
inactive: [4] 97 % of control | [5] 105 % of control | [6] 108 % of control

O=C(N/N=C/c1ccco1)c1cccnc1
inactive: [7] 92 % of control | [8] 92 % of control | [9] 101 % of control

COc1cccc2c1SCC/C2=N\OCC(O)CNC1CCCCC1 (stereo not given)
inactive: [10] 94 % of control | [11] 94 % of control

COc1ccc(S(=O)(=O)NNS(=O)(=O)c2ccc(OC)c(OC)c2)cc1OC
inactive: [12] 95 % of control | [13] 99 % of control | [14] 94 % of control and 96 % of control

CN(N=O)c1ccc(N=Nc2ccccc2)cc1
inactive: dose: 60.0 mg/kg/injection, schedule: Q01DX005 (ip), vehicle: Klucel (hydroxypropylcellulose) (HPC) 98 % of control | dose: 120.0 mg/kg/injection, schedule: Q01DX005 (ip), vehicle: Klucel (hydroxypropylcellulose) (HPC) 95 % of control | dose: 240.0 mg/kg/injection, schedule: Q01DX005 (ip), vehicle: Klucel (hydroxypropylcellulose) (HPC) 86 % of control

Cn1c(=S)[nH]n(CCOc2ccccc2)c1=S
inactive: [7] 118 % of control | [8] 98 % of control and 99 % of control and 108 % of control | [9] 109 % of control and 123 % of control and 97 % of control | dose: 480.0 mg/kg/injection, schedule: Q01DX005 (ip), vehicle: saline with Tween-80 105 % of control and 96 % of control

O=Cc1cc(CCl)ccc1O
inactive: [12] 103 % of control | [13] 110 % of control | [14] 113 % of control | [15] 98 % of control

Cc1cc(S(=O)(=O)O)ccc1N=c1ccc2c(-c3ccccc3C(=O)O)c3ccc(Nc4ccccc4C)cc3oc-2c1
inactive: dose: 50.0 mg/kg/injection, schedule: Q01DX005 (ip), vehicle: saline 88 % of control | dose: 100.0 mg/kg/injection, schedule: Q01DX005 (ip), vehicle: saline 105 % of control | dose: 200.0 mg/kg/injection, schedule: Q01DX005 (ip), vehicle: saline 91 % of control

NC(=S)N/N=C\c1[nH]c(=O)nc2ccccc12
inactive: [5] 100 % of control | [6] 100 % of control | dose: 400.0 mg/kg/injection, schedule: Q01DX009 (ip), vehicle: Klucel (hydroxypropylcellulose) (HPC) 100 % of control

CCC1(C)CCC2(C)C(CCC3C4(C)CCCC32OC4=O)C1 (stereo not given)
inactive: dose: 25.0 mg/kg/injection, schedule: Q01DX005 (ip), vehicle: Klucel (hydroxypropylcellulose) (HPC) 96 % of control | [1] 99 % of control | [2] 101 % of control and 103 % of control | [3] 99 % of control

Brc1cc(-c2ccccc2)on1
inactive: [16] 108 % of control | [17] 103 % of control | [18] 105 % of control

CN=C(NC1CCCCC1)c1ccc(NC(=O)c2ccc(C(=O)Nc3ccc(C(=NC)NC4CCCCC4)cc3)cc2)cc1
inactive: dose: 1.5 mg/kg/injection, schedule: Q01DX005 (ip), vehicle: saline with Tween-80 100 % of control | dose: 3.0 mg/kg/injection, schedule: Q01DX005 (ip), vehicle: saline with Tween-80 100 % of control | dose: 6.0 mg/kg/injection, schedule: Q01DX005 (ip), vehicle: saline with Tween-80 112 % of control | dose: 6.25 mg/kg/injection, schedule: Q01DX005 (ip), vehicle: saline with Tween-80 105 % of control

S=P([S][Sn]([S]P(=S)(c1ccccc1)c1ccccc1)([c]1ccccc1)[c]1ccccc1)(c1ccccc1)c1ccccc1
inactive: dose: 1.56 mg/kg/injection, schedule: Q01DX005 (ip), vehicle: Klucel (hydroxypropylcellulose) (HPC) 108 % of control | dose: 3.12 mg/kg/injection, schedule: Q01DX005 (ip), vehicle: Klucel (hydroxypropylcellulose) (HPC) 117 % of control

COc1ccc(C2=C(Cl)C(=O)N(c3ccc(OC)cc3)C(=O)C2(Cl)Cl)cc1
inactive: [10] 101 % of control | [11] 95 % of control | dose: 400.0 mg/kg/injection, schedule: Q04DX002 (ip), vehicle: Klucel (hydroxypropylcellulose) (HPC) 111 % of control

[N-]=[N+]=CC(=O)c1ccc(Cl)cc1
inactive: [16] 108 % of control | [17] 115 % of control | [18] 107 % of control

CC1C(=O)OC2C(O)C34C5OC(=O)C3(OC3OC(=O)C(O)C34C(C(C)(C)C)C5O)C12O (stereo not given)
inactive: dose: 5.0 mg/kg/injection, schedule: Q01DX005 (ip), vehicle: Klucel (hydroxypropylcellulose) (HPC) 93 % of control | dose: 10.0 mg/kg/injection, schedule: Q01DX005 (ip), vehicle: Klucel (hydroxypropylcellulose) (HPC) 95 % of control | dose: 20.0 mg/kg/injection, schedule: Q01DX005 (ip), vehicle: Klucel (hydroxypropylcellulose) (HPC) 89 % of control | dose: 40.0 mg/kg/injection, schedule: Q01DX005 (ip), vehicle: Klucel (hydroxypropylcellulose) (HPC) 93 % of control | dose: 80.0 mg/kg/injection, schedule: Q01DX005 (ip), vehicle: Klucel (hydroxypropylcellulose) (HPC) 89 % of control

COc1ccc2c(c1)[C@]13CCN(N=O)[C@H](C2)[C@@H]1CCC(=O)C3
inactive: dose: 25.0 mg/kg/injection, schedule: Q01DX001 (ip), vehicle: saline with Tween-80 92 % of control | dose: 50.0 mg/kg/injection, schedule: Q01DX001 (ip), vehicle: saline with Tween-80 108 % of control | dose: 100.0 mg/kg/injection, schedule: Q01DX001 (ip), vehicle: saline with Tween-80 106 % of control and 92 % of control

COc1ccc(C2COc3cc(OC(C)=O)c(OC(C)=O)cc3C2)cc1 (stereo not given)
inactive: [7] 103 % of control | [8] 103 % of control | [9] 103 % of control

O/N=C/C1CCCC[N-]1.O/N=C/C1CCCC[N-]1.O/N=C/C1CCCC[N-]1.[Cu] (stereo not given)
inactive: dose: 1.56 mg/kg/injection, schedule: Q01DX009 (ip), vehicle: saline 87 % of control | dose: 3.12 mg/kg/injection, schedule: Q01DX009 (ip), vehicle: saline 96 % of control | dose: 6.25 mg/kg/injection, schedule: Q01DX009 (ip), vehicle: saline 87 % of control

NC1C(=O)Nc2ccccc21 (stereo not given)
inactive: [19] 95 % of control | [20] 103 % of control

COc1ccccc1C1CC(c2ccccc2)=Nc2ccccc2S1 (stereo not given)
inactive: [4] 96 % of control | [5] 100 % of control | [6] 101 % of control

Cc1cc(C)n(C2=NCCN2)n1
inactive: [19] 99 % of control | [20] 96 % of control

CC(=O)OCC1OC(Sc2ccc([N+](=O)[O-])cc2)C(OC(C)=O)C(OC(C)=O)C1OC(C)=O (stereo not given)
inactive: dose: 15.0 mg/kg/injection, schedule: Q01DX005 (ip), vehicle: saline with Tween-80 100 % of control | dose: 30.0 mg/kg/injection, schedule: Q01DX005 (ip), vehicle: saline with Tween-80 98 % of control | [7] 91 % of control

C=C(C)CC1(C)CC(=O)C(C)=C(C)C1=O (stereo not given)
inactive: dose: 25.0 mg/kg/injection, schedule: Q04DX003 (ip), vehicle: Klucel (hydroxypropylcellulose) (HPC) 110 % of control | dose: 50.0 mg/kg/injection, schedule: Q04DX003 (ip), vehicle: Klucel (hydroxypropylcellulose) (HPC) 105 % of control | [16] 100 % of control

C=C(C)c1nc(N)nc(N(C)C)n1
inactive: [1] 100 % of control | [2] 102 % of control | [3] 100 % of control

Cc1ccc(-n2c(=O)c3[nH]c4ccccc4sc=3c2=O)cc1
inactive: [14] 102 % of control | [15] 95 % of control | dose: 200.0 mg/kg/injection, schedule: Q01DX005 (ip), vehicle: saline with Tween-80 91 % of control
